These results are taken from ChEMBL document CHEMBL1143809, “New bis-N9-(methylphenylmethyl)purine derivatives: synthesis and antitumor activity” (2007).

Holding throughout (format): functional
One assay relates to NCI-H460. The assay can be described thus: Anticancer activity against human NCL-H460 cells assessed as growth at 100 uM after 48 hrs by SRB protein assay relative to control. The settings on record: NCI-H460, 48 h, read-out: Activity. On the technique in general: The SRB assay estimates cell density from bound dye.
For a further assay, the system named is MCF7. The assay can be described thus: Anticancer activity against human MCF7 cells assessed as growth at 100 uM after 48 hrs by SRB protein assay relative to control. The note with it: MCF7, 48 h, read-out: Activity.
A further assay concerns SF-268. The assay can be described thus: Anticancer activity against human SF268 cells assessed as growth at 100 uM after 48 hrs by SRB protein assay relative to control. The settings on record: SF-268, 48 h, read-out: Activity.

For the compound `Clc1ncnc2c1ncn2Cc1ccccc1Cn1cnc2c(Cl)ncnc21`, the growth at 100 µM in the assay on NCI-H460 amounted to 58%; in the assay with MCF7, 78%; in the assay with SF-268, 78%.

With `Clc1ncnc2c1ncn2Cc1ccc(-c2ccc(Cn3cnc4c(Cl)ncnc43)cc2)cc1`, the growth at 100 µM in the assay with NCI-H460 turned out to be 45%; in the assay with MCF7, 67%; in the assay on SF-268, 95%.

For `Nc1ncnc2c1ncn2Cc1ccc(-c2ccc(Cn3cnc4c(N)ncnc43)cc2)cc1`, the figures for the growth at 100 µM in the assay with NCI-H460, in the assay on MCF7 and with SF-268 were 98%, 86% and 50%, respectively.

On to `Nc1ncnc2c1ncn2Cc1ccc(Cn2cnc3c(N)ncnc32)cc1`, for which the growth at 100 µM in the assay on NCI-H460 stood at 111%; with MCF7, 112%; with SF-268, 96%.

As to `Nc1ncnc2c1ncn2Cc1cccc(Cn2cnc3c(N)ncnc32)c1`, the growth at 100 µM with NCI-H460 was 96%; in the assay on MCF7, 109%; with SF-268 it was 108%.

Turning to `Clc1ncnc2c1ncn2Cc1ccc(Cn2cnc3c(Cl)ncnc32)cc1`, the growth at 100 µM in the assay on NCI-H460 worked out at 95%; in the assay on MCF7, 101%; in the assay with SF-268, 86%.

Consider `Clc1ncnc2c1ncn2Cc1cccc(Cn2cnc3c(Cl)ncnc32)c1`, for which the growth at 100 µM was 65% with NCI-H460, 77% with MCF7 and 90% in the assay on SF-268.

With `Nc1ncnc2c1ncn2Cc1ccccc1Cn1cnc2c(N)ncnc21`, the growth at 100 µM worked out at 84% with NCI-H460, 99% in the assay with MCF7 and 99% in the assay on SF-268.
